Experimental data: paper PMC5717164 (Nature Communications, 2017)

Experiments:
[1] = target: T1, D-alanine:D-alanine ligase (EcDdlB) (Escherichia coli, UniProt P07862); experiment: co-crystal structures at […] Å (with D-Ala-D-Ala) and […] Å (with DCSP, 4C5A); assay type: binding
T1 construct: gene ddlB; all 306 residues of the native protein, with amino-terminal histidine-tag

[2] = target: T1, D-alanine:D-alanine ligase (EcDdlB); experiment: co-crystal structure at […] Å (formed in situ from ATP and DCS); assay type: binding

## Nc1ncnc2c1ncn2[C@@H]1O[C@H](COP(=O)(O)OP(=O)(O)O)[C@@H](O)[C@H]1O [ADP]
[1]
  co-crystal structures at 1.5 Å (with D-Ala-D-Ala) and 1.65 Å (with DCSP, 4C5A): The adenine ring of the ATP or ADP ligand lies in a pocket mainly composed of hydrophobic and aromatic residues

## NC1CON=C1OP(=O)(O)O [DCSP, phosphorylated D-cycloserine]
[2]
  co-crystal structure at 1.65 Å (formed in situ from ATP and DCS): phosphorylated DCS was bound in the high-affinity D-alanine binding site (D-Ala1)
